No end group written: not given here.
Tests used:
[1] = system: rabbit dermal fibroblasts; assay: Fibroblast-mediated collagen gel contraction (shrinkage) assay; assay type: cell-based; conditions: for Effect on fibroblast-mediated collagen gel contraction: gels cast with and without fibronectin; for % Contraction: 200 ug type IV collagen peptide, no peptide 36%; for % Contraction / Contraction: cells preincubated 1 hr, gel surface area by planimetry at day 7; for Contraction: 200 ug laminin peptide, no peptide 67%
Source text: As indicated above, proliferative vitreoretinopathy is the result of the proliferation and migration of fibroblasts, retinal pigment epithelial cells, and glial cells, and their organization into vitreous strands and epiretinal membranes. The vitreous strands and epiretinal membranes can contract, resulting in traction retinal detachment. The ability of rabbit dermal fibroblasts to cause contraction was examined in the collagen gel shrinkage model, which serves as an in vitro model of proliferative vitreoretinopathy (see Verdoon et al., Arch. Ophthalmol., 104, 1216-1219 (1986)). The ability of synthetic polypeptides derived from ECM molecules to inhibit contraction in the collagen gel shrinkage model using rabbit fibroblasts was also examined.
Fifty thousand rabbit dermal fibroblasts were suspended in 250 μl of fibroblast assay medium and mixed with 250 μl of Vitrogen and dispensed into the wells of a 48-well plate. The cells were preincubated with the desired polypeptide concentration (25, 50, 100, or 200 ug/ml) for one hour at 37° C. before mixing with the Vitrogen. Gelling occurred within 20 minutes after transfer of the mix of cell suspension and Vitrogen into an incubator at 37° C. with 5% CO2. The gels were overlaid with 250 μl of growth medium. All conditions were tested in duplicate wells. After 24 hours, the gels were detached from the sides of the wells by sweeping with a 27-gauge needle inserted at the interface between the plastic well and the gel (FIGS. 6-8).
Contraction of collagen gels was quantitated by use of planimetry. The gels were observed daily over the seven day period following detachment for evidence of contraction. The plates were photographed at the end of the seven days to record the amount of contraction. The contraction was measured by recording the area of each gel in each well off the photograph using a computer scanner. The area of the gels with polypeptide was compared to the area of the gels without the polypeptide. Planimetry is a two-dimensional measurement. […] The planimetry measurements accordingly underestimate the degree of contraction that actually occurred.
The collagen gels were cast with or without the incorporation of 25 ug/ml of fibronectin. […] These controls using deactivated cells indicate that cell growth and proliferation are required to effect gel shrinkage.

[2] = system: rabbit conjunctival fibroblasts; assay: Conjunctival fibroblast proliferation, tritiated thymidine assay; assay type: cell-based; conditions: day 4; mitomycin-C at 100 μg/ml (positive control); no drug control 8537 cpm
Source text: The failure of gluacoma treatment by filtration surgery is most often caused by scarring. Scarring requires fibroblast proliferation and fibrosis of the subconjunctive space. Proliferation of rabbit conjunctival fibroblasts was studied using the tritiated thymidine assay, which serves as an in vitro model of fibroblast proliferation in the rabbit eye (see Invest. Ophthalmol. Vis. Sci., 31, 1848-1855 (1990)). The ability of synthetic polypeptides derived from ECM molecules to inhibit conjuntival fibroblast proliferation was examined in this model.
Rabbit conjunctival fibroblasts were plated into 96-well microtiter plates at 1000 cells/well in 200 microliters of standard fibroblast culture media. Standard fibroblast culture media include Eagle's minimal essential medium containing 15% fetal bovine serum, penicillin G 100 IU/ml, streptomycin 100 μg/ml, and amphotericin B 0.25 μg/ml. Hep-II was added to the wells in concentrations ranging from 1 μg/ml to 1000 μg/ml after removing an equal volume of media to maintain 200 microliters/well. The peptide was used in concentrations of 1, 3, 7, 10, 25, 50, 100, 200, 300, 400, 500, 600, 800 and 1000 microgram/ml (experiments 1-14, respectively in FIG. 26). The tissue culture plates were incubated at 37° C. in a humidified atmosphere of 5% carbon dioxide. Two separate sets experiments were conducted. Each set of experiments was done in replicates of four. In the first set of experiments, tritiated thymidine was added 22 hours prior to each harvesting on days 4, 5, and 8. In the second set of experiments, tritiated thymidine was added 22 hours prior to each harvesting on days 4, 5, and 6. Wells with vehicle but no test compound served as negative controls (experiment #15) and cells with mitomycin-C at 100 μg/ml served as positive controls (experiment #16).

[3] = system: proliferative vitreoretinopathy rabbit model; conditions: cited from earlier work
dermal fibroblasts [4] = conditions: Verdoorn et al. 1986; cited from earlier work
dermal fibroblasts [5] = conditions: Verdoorn et al. 1986; cited from earlier work; remark: listed apart in the source
[6] = 3H-heparin; cited from earlier work
dermal fibroblasts [7] = conditions: Verdoorn et al. 1986; cited from earlier work; remark: listed apart in the source
fibroblasts = conditions: cited from earlier work
[8] = system: human scleral fibroblasts; conditions: cited from earlier work
[9] = system: retinal pigmented epithelial cells; conditions: cited from earlier work
[10] = system: proliferative vitreoretinopathy in rabbits; assay: Rabbit model of experimental proliferative vitreoretinopathy (intravitreal fibroblast injection); assay type: in vivo
Procedure: The rabbit model for proliferative vitreoretinopathy is described in Thresher et al., Graefe's Arch. Clin. Exp. Ophthalmol., 221, 192-198 (1984). Adult Dutch Belted rabbits of both sexes were used in the study. All animals were treated according to ARVO Animal Use Guidelines. All eyes were examined prior to initiation of a study and only clinically normal animals were used.
The rabbits were anesthetized using an intramuscular injection of a mix of ketamine (30 mg/kg) and xylazine (5 mg/kg). Pupils were dilated with Mydriacyl (Tropicamide) 1% and Neosynephrine 2.5% topical drops. Topical conjunctival anesthesia was provided with Proparacaine […] drops. All procedures were performed in an approved animal surgical facility. […] This site was used for subsequent intraocular injections, preventing iatrogenic retinal tears at the injection site. An intravitreal injection of 0.4 cc millipore-filtered 100% perfluoropropane gas was administered to produce a gas compression vitrectomy. Once the expansile gas bubble had absorbed, 5-10×10^4 dermal rabbit fibroblasts with or without 200 μg of polypeptide (injection volume-0.1 cc) were injected through a 27 gauge needle into the vitreous cavity. Under indirect ophthalmoscopic visualization, the tip of the needle was placed over the optic nerve head and the cells were injected in this location.
The animals were then observed for the development of proliferative vitreoretinopathy. The final stage of retinal detachment was scored from 0 to 7 using the standard grading scale shown below (see Hida et al., Graefe's Arch. Clin. Exp. Ophthalmol., 225, 1763-1769 (1991)).
Retinal photographs were taken with a wide field fundus camera (Canon) to document the final stage of retinal detachment. Animals were sacrificed while under deep anesthesia with an intravenous injection of 1 cc of euthanasia solution. The eyes were then immediately enucleated, fixed in 10% formalin, paraffin embedded, sectioned at 7 microns, and stained with hematoxylin and eosin for histology.
Three weeks following peripheral retinal cryopexy and gas compression vitrectomy, rabbit fibroblasts incubated for 1 hr with 200 ug of laminin polypeptide R37, type IV collagen polypeptide Hep-II, or BSS (balanced saline solution; control) were injected intravitreally. One eye of each rabbit received polypeptide incubated fibroblasts and the other eye received the control cells. Eyes were examined every three days, and the degree of retinal detachment was graded on the standard scale described above.

rabbit eye = assay: Intravitreal polypeptide toxicity in rabbit eye (ERG, clinical observations, histology); assay type: in vivo
Procedure: The toxicity of the polypeptides was determined by three techniques:
ERG. Electroretinograms (ERG) were carried out as a functional indicator of toxicity of a polypeptide treatment. Polypeptides were injected at 200 ug and 400 ug (twice the dose that inhibited proliferative vitreoretinopathy), and ERG measurements were performed three times in each eye at various times post-injection (1 hr to 6 weeks).
Clinical observations. Observation by indirect ophthalmoscopy and slit lamp examination were performed to probe for evidence of toxicity.
Histology. Following ERG and clinical observations, the eyes were immediately enucleated, fixed in 10% formalin, paraffin embedded, sectioned at 7 microns, and stained with hematoxylin and eosin.

With `CO[C@@]12[C@H](COC(N)=O)C3=C(C(=O)C(C)=C(N)C3=O)N1C[C@@H]1N[C@@H]12` [mitomycin-C, reference compound] the “Gel contraction by pretreated fibroblasts” value ([1]; fibroblasts pretreated with mitomycin C, data not shown) was “did not cause gel contraction” and the Thymidine uptake [2] was 375 cpm.
For `CC1(C)O[C@@H]2C[C@H]3[C@@H]4CCC5=CC(=O)C=C[C@]5(C)[C@@]4(F)[C@@H](O)C[C@]3(C)[C@]2(C(=O)CO)O1` [triamcinolone acetonide], the “Incidence of retinal detachment” value ([3]; eyes injected with triamcinolone acetonide, reduced from 93%) is given as 75%.
In the case of `C=C1[C@@H](C)[C@H]2[C@H](Cc3ccccc3)NC(=O)[C@]23OC(=O)/C=C/[C@H](O)CCC[C@@H](C)C/C=C/[C@H]3[C@@H]1O` [cytochalasin B], the “Inhibition of cell proliferation” value (dermal fibroblasts [4]) is given as “inhibited cell proliferation” and the “Inhibition of cell migration” value (dermal fibroblasts [5]) is given as “minimal effect on cell migration”.
For WQPPRARI [FN-C/H-V], the Heparin binding [6] is given as “known to bind”.
In the case of `CC(=O)O[C@H]1C(=O)[C@@]2(C)[C@H]([C@H](OC(=O)c3ccccc3)[C@]3(O)C[C@H](OC(=O)[C@H](O)[C@@H](NC(=O)c4ccccc4)c4ccccc4)C(C)=C1C3(C)C)[C@]1(OC(C)=O)CO[C@@H]1C[C@@H]2O` [taxol], the “Inhibition of cell proliferation” value (dermal fibroblasts [4]) is listed as “most effective” and the “Traction retinal detachment induced by injected chorioretinal fibroblasts” value ([3]; 0.5 μg intravitreal injection) is listed as “reduces traction retinal detachment”.
For `COc1cccc2c1C(=O)c1c(O)c3c(c(O)c1C2=O)C[C@@](O)(C(C)=O)C[C@@H]3O[C@H]1C[C@H](N)[C@H](O)[C@H](C)O1` [daunomycin], the “Inhibition of gel contraction” value (dermal fibroblasts [7]) is listed as “not found to inhibit contraction”, the “Inhibition of cell proliferation” value (dermal fibroblasts [4]) is listed as “most effective” and the “Inhibition of cell migration” value (dermal fibroblasts [5]) is listed as “most inhibited”.
For YRVRVTPKEKTGPMKE [FN-C/H-III], the Heparin binding [6] is listed as “known to bind”.
In the case of “SPPRRARVT [FN-C/H-IV, Ser-Pro-Pro-Arg-Arg-Ala-Arg-Val-Thr]”, the “Effect on fibroblast-mediated collagen gel contraction” value [1] is listed as “Inhibition of gel contraction was also observed” and the Heparin binding [6] is listed as “known to bind”.
For “GVKGDKGNPGWPGAP [IV-H1, GVKGDKGNPGWPGAP]”, the “% Contraction” value [1] was 72% and the “Effect on fibroblast-mediated collagen gel contraction” value [1] was “frequently found to promote contraction”.
For heparin, the “Fibroblast-mediated contraction of type I collagen gels” value (fibroblasts) is listed as “inhibit”, the “Proliferation of human scleral fibroblasts” value [8] is listed as “inhibits the proliferation” and the “Proliferation of retinal pigmented epithelial cells” value [9] is listed as “inhibits the proliferation”. For the same compound, the Postoperative bleeding ([3]; rabbit, in vivo) was “increased postoperative bleeding was observed” and the “Development of intraocular fibrin membranes” value ([3]; standardized PVR rabbit model) was “prevent the development of intraocular fibrin membranes”.
With “KATPMLKMRTSFHGCIK [R37, Lys-Ala-Thr-Pro-Met-Leu-Lys-Met-Arg-Thr-Ser-Phe-His-Gly-Cys-Ile-Lys]” the Contraction [1] was 12%, the “Effect on fibroblast-mediated collagen gel contraction” value [1] was “most potent inhibitory effects on contraction” and the “Retina appearance (stage 0-7 scale), fundus photograph” value ([10]; 200 ug with 100,000 fibroblasts, three weeks after fibroblast injection) was “normal (Stage 0)”. The “# Detached Retinas (%)” value ([10]; Expt II: 200 ug, 50,000 cells, RD staged at day 21, control 40%) was 0%, the “# Detached Retinas” value ([10]; Expt II: 200 ug, 50,000 cells, RD staged at day 21, total 5 eyes, control 2 of 5) was 0 and the “# Detached Retinas (%)” value ([10]; Expt III: 200 ug, 100,000 cells, RD staged at day 7, control 100%) was 14%. The “# Detached Retinas” value ([10]; Expt III: 200 ug, 100,000 cells, RD staged at day 7, total 7 eyes, control 7 of 7) was 1, the “# Detached Retinas (%)” value ([10]; Expt IV: 200 ug, 80,000 cells, RD staged at day 21, control 100%) was 25% and the “# Detached Retinas” value ([10]; Expt IV: 200 ug, 80,000 cells, RD staged at day 21, total 4 eyes, control 3 of 3) was 1. The “Degree of retinal detachment” value ([10]; fibroblasts incubated 1 hr with 200 ug polypeptide, intravitreal) was “inhibited the degree of retinal detachment”, the Retinal histopathology (rabbit eye; following injection of 400 ug) was “normal rabbit retinal histopathology” and the “Toxic effects by clinical observations, histopathology or ERG” value (rabbit eye; intravitreal injection of 200 ug or 400 ug) was “No toxic effects”. For the same compound, the Heparin binding [6] was “bind”.
In the case of “TSLRKALLHAPTGSYSDGQ [R35, TSLRKALLHAPTGSYSDGQ]”, the Contraction [1] is listed as 63% and the Heparin binding [6] is listed as “do not bind”.
In the case of KNNQKSEPLIGRKKT [FN-C/H-IIa], the Heparin binding [6] is listed as “known to bind”.
For TAGSCLRKFSTM [Hep-I, TAGSCLRKFSTM], the “% Contraction” value [1] is given as 33% and the Heparin binding [6] is given as “reported to bind heparin”.
In the case of KNLEISRSTFDLLRNSYGVRK [R26], the Contraction [1] is given as 45%, the “Effect on fibroblast-mediated collagen gel contraction” value [1] is given as “Inhibition of gel contraction was also observed” and the Heparin binding [6] is given as “do not bind”.
For KEGYKVRLDLNITLEFRTTSK [R38], the Contraction [1] is listed as 74%, the “Effect on fibroblast-mediated collagen gel contraction” value [1] is listed as “frequently found to promote contraction” and the Heparin binding [6] is listed as “bind”.
In the case of YEKPGSPPREVVPRPRPGV [FN-C/H-I], the Heparin binding [6] is given as “known to bind”.
For GEFYFDLRLKGDK [Hep-III, GEFYFDLRLKGDK], the “% Contraction” value [1] is listed as 33% and the Heparin binding [6] is listed as “reported to bind heparin”.
For `COc1cc2c(c(OC)c1OC)-c1ccc(OC)c(=O)cc1[C@@H](NC(C)=O)CC2` [colchicine], the “Inhibition of gel contraction” value (dermal fibroblasts [7]) is listed as “most effective at inhibiting gel contraction” and the “Inhibition of cell proliferation” value (dermal fibroblasts [4]) is listed as “inhibited cell proliferation”.

Source: patent US6013628A, “Method for treating conditions of the eye using polypeptides” (Regents of the University of Minnesota, priority 1995, dated 2000)
